Tests used:
Cl_EstA = target: T1, Cl_EstA (Clostridium botulinum, UniProt A5I055)
T1 construct: gene lipA

Tl_Est64 = target: T2, Tl_Est64 (Thermosyntropha lipolytica, UniProt A0A1M5LUW5); test: pNP release, absorbance […] nm; type: biochemical
T2 construct: gene SAMN02745221_00755
T2 sequence (A0A1M5LUW5 29-416): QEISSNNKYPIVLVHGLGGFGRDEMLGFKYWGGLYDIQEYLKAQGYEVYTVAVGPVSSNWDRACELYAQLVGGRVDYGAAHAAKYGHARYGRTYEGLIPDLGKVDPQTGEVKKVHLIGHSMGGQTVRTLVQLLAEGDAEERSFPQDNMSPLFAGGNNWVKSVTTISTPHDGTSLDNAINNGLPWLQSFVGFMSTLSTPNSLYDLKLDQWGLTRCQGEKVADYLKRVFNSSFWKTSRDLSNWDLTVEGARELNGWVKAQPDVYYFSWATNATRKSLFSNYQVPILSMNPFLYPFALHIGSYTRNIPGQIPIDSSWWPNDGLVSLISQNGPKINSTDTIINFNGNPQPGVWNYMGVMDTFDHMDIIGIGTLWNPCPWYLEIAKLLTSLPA

Dt_Est = target: T3, Dt_Est (Desulfurispora thermophila, UniProt Z9TUI6NBX6); test: pNP release, absorbance […] nm; type: biochemical
T3 sequence (Z9TUI6NBX6 32-423): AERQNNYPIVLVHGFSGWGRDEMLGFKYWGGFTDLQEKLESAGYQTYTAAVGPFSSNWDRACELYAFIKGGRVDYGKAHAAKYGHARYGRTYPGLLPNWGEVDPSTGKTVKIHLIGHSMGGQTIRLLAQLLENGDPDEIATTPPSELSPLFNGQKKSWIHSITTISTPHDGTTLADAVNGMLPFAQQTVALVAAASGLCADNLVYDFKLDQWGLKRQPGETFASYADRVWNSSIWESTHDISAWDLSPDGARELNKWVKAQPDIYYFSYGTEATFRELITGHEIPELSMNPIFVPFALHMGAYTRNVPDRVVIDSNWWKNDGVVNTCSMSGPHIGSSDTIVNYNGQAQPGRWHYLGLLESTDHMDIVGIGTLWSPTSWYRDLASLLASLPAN

T1 sequence (A5I055 1-480): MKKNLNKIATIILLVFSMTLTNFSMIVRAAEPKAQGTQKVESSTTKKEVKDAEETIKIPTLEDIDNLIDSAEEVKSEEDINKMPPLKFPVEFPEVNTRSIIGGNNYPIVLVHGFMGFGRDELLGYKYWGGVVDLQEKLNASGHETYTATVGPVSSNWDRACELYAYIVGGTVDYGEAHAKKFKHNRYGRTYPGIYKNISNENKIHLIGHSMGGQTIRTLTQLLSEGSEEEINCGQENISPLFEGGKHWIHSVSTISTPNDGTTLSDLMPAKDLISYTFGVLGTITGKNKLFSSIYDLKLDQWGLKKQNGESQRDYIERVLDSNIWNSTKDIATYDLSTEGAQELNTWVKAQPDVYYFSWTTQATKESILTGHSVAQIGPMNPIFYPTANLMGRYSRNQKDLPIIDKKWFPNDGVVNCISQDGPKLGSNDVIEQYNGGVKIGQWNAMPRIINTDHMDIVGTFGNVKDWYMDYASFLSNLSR

| SMILES | pNP release, absorbance 405 nm (Tl_Est64) | further results |
| --- | --- | --- |
| CC(=O)Oc1ccc([N+](=O)[O-])cc1 [pNP acetate] | – | pNP release, absorbance 405 nm (Cl_EstA): except Cl_EstA, which had the best activity with pNP acetate |
| CCCC(=O)Oc1ccc([N+](=O)[O-])cc1 [pNP butyrate] | Tl_Est64 showed the highest overall activity with the substrates pNP butyrate and pNP valerate | – |
| CCCCCCCC(=O)Oc1ccc([N+](=O)[O-])cc1 [pNP octanoate] | – | pNP release, absorbance 405 nm (Dt_Est): Dt_Est showed the highest activity with pNP octanoate |
| CCCCC(=O)Oc1ccc([N+](=O)[O-])cc1 [pNP valerate] | Tl_Est64 showed the highest overall activity with the substrates pNP butyrate and pNP valerate | – |

From paper PMC12616515, “Thermostable Bacterial Esterases From Lipase Family 1.5 Degrade Compostable Polyesters PBAT and PBSA” (MicrobiologyOpen, 2025)
